Measurements published in patent publication US20070072939A1, “Cannabinoid active pharmaceutical ingredient for improved dosage forms” (Euro-Celtique, S.A., priority 2005, published 2007).

Assays:
[1] = sufficiently purified trans-(+)-Δ^9-THC; cited from earlier work
[2] = purified resinous material, background statement; cited from earlier work
[3] = delivery by inhalation (e.g., by smoking); cited from earlier work
[4] = stability of the substance to air, light and temperature (appearance)

CCCCCc1cc(O)c2c(c1)OC(C)(C)[C@H]1CCC(C)=C[C@H]21 [trans-(+)-Δ^9-THC, trans-(+)-Δ^9-tetrahydrocannabinol]
activity relative to the trans-(−)-Δ^9-THC enantiomer [1]: ~1%

CCCCCc1cc(O)c2c(c1)OC(C)(C)[C@@H]1CCC(C)=C[C@@H]21 [trans-(−)-Δ^9-THC, (−)-6a, 10a-trans-Δ^9-tetrahydrocannabinol]
chemical stability to light, oxygen and heat [2]: chemically unstable to light, oxygen, and heat | onset of pharmacological activity [3]: ≤ 10 minutes

trans-(±)-Δ^9-tetrahydrocannabinol [crystalline trans-(±)-Δ^9-THC]
stability ([4]; 25° C. in the presence of air and laboratory lighting, Example 12 material): stable | retention of white appearance ([4]; 25° C., Example 10 material, expected): retain that white appearance for at least three days | appearance after storage ([4]; held for three days at room temperature in the presence of air and laboratory lighting): remained white
